Assay results: US20090281156A1, “ENHANCING PHOTOSTABILIZATION OF OXYMETAZOLINE” (Schering-Plough Healthcare Products, Inc,, priority 2007, published 2009)
Where a name gives a salt, the structure may show the parent alone. One block for each molecule: values may come before it.

Experiments:
[1] = ICH photostability testing of oxymetazoline HCl solutions (quartz container, twice ICH exposure); assay type: physicochemical; conditions: for drug degraded after UV light exposure: McIlvaine buffer pH=6
Procedure: 0.05% (w/v) oxymetazoline HCl solutions with pH ranging from 4 to 6 were prepared using McIlvaine buffer systems (Solutions I-III). At each pH level, 0.05% oxymetazoline HCl solutions containing either Povidone 29-32 (approximately 3% w/v) or PEG 1450 (approximately 5% w/v) were also made ([…]).
Example embodiments were tested for photostability according to methods described in ICH Harmonized Tripartite Guidelines Stability Testing: Photostability Testing of New Drug Substances and Products. Each sample for photostability studies was placed in an enclosed quartz container and exposed to twice the exposure required by ICH photostability guideline (total exposure of 2.4 million lux hours and an integrated near UV energy of 400 watt hours/square meter).
All of the observed oxymetazoline HCl degradation peaks were calculated and presented in percentage.

[2] = in vivo; cited from earlier work
[3] = exemplary conventional formulation; cited from earlier work

drug degraded after UV light exposure ([1]; 24 hours of UV light exposure): roughly 9% | drug degraded after UV light exposure ([1]; 40 hours of UV light exposure): ~72% | light sensitivity ([1]; aqueous solution): light sensitive | increase in the total degradation on incorporating PEG 1450 ([1]; pH 5, T=40 hours, PEG 1450 approximately 5% w/v): roughly 4 fold | increase in the total photodegradation in presence of Povidone K29-32 ([1]; pH=6, T=40 hours, Povidone K29-32 approximately 3% w/v): about 21%
SMILES: Cc1cc(C(C)(C)C)c(O)c(C)c1CC1=NCCN1 [oxymetazoline HCl, 6-tert-butyl-3-(2-imidazolin-2-ylmethyl)-2,4-dimentylphenol hydrochloride]

SMILES: CN1CCC(=C2c3ccccc3CCc3cccnc32)CC1 [Azatadine]
elimination half-life [2]: 9 to 12 h

SMILES: CCOC(=O)N1CCC(=C2c3ccc(Cl)cc3CCc3cccnc32)CC1 [loratadine]
antihistaminic effect lasts [3]: > 24 h
